In patent publication US12187814B1, “Stapled antimicrobial peptide” (KING SAUD UNIVERSITY, priority 2024, dated 2025):
In brackets after ≈: the same amount, converted by molar mass. Read-outs that look alike come from different tables or passages of the source. Bridge positions count the residues as written; N and C are the ends. Square brackets hold non-standard residues; d marks the D form. Peptide text beside a SMILES is read from it. S5 = C=CCCC[C@](C)(N)C(=O)O

What was measured:
Staphylococcus aureus [1] = assay: Agar diffusion test (modified Kirby-Bauer), zone of inhibition; type: cell-based; settings: 30 μl per well, sAMP1 100 μg/ml, Kanamycin 50 μg/ml, 24 hours
Text: (§1) The agar diffusion method was used to examine the synthesized AMP's antibacterial activity. Pure colonies of Staphylococcus aureus and MRSA were used for antibacterial susceptibility testing according to Clinical Laboratory Standards Institute (CLSI) 2021 guideline) by using a modified Kirby-Bauer disk diffusion technique (Humphries, R. et al, “Overview of Changes to the Clinical and Laboratory Standards Institute Performance Standards for Antimicrobial Susceptibility Testing”, M100, 31st Edition, J. Clin. Microbiol. 2021 Nov. 18; 59 (12): e0021321). In brief, homogeneous colonies were chosen from each microbial strain and grown on Mullar Hilton broth at log phase. 0.5 McFarland standard culture was used to spread on to the Mullar Hilton agar plates. Freshly prepared (30 μl each) of Kanamycin 50 μg/ml and sAMP1 100 μg/ml was poured into 4 mm diameter well, blank well with an equivalent amount of saline served as a […] control. The plates were incubated for 24 hours, and the diameter of the inhibition zone was measured to determine susceptibility or resistance. The full analysis was carried out three times.

MRSA [2] = assay: as above; type: cell-based, Staphylococcus aureus; settings: 30 μl per well, sAMP1 100 μg/ml, Kanamycin 50 μg/ml, 24 hours
Text: as §1

Staphylococcus aureus [3] = assay: microbe, parasite or virus in culture
MRSA [4] = assay: microbe, parasite or virus in culture; settings: Staphylococcus aureus
MRSA [5] = test system: MRSA
[6] = test system: MCF-7 breast cancer cells
Method: Cytotoxicity & MTT Testing
(§2) Cell line MCF-7 and A549 cells were cultured under CO2 (5%) at 37° C. using Dulbecco's Modified Eagle's Medium (DMEM), accompanied with 1% mixture of “Penicillin-Streptomycin”, 10% Fetal Bovine Serum (FBS) and 1% L-Glutamine.

Method for A549 lung cancer cells: Cytotoxicity & MTT Testing
as §2

MIC (Staphylococcus aureus [3]) [µg/mL] | MIC (MRSA [4]) [µg/mL] | MIC 96-well plate result (growth), replicates 1-3 (MRSA [5]; sAMP1 1.5625 μg/ml (row G)) | MIC 96-well plate result (growth), replicates 1-3 (MRSA [5]; sAMP1 3.125 μg/ml (row F)) | MIC 96-well plate result (growth), replicates 1-3 (MRSA [5]; sAMP1 6.25 μg/ml (row E)) | MIC 96-well plate result (growth), replicates 1-3 (MRSA [5]; sAMP1 12.5 μg/ml (row D)) | IC50 cell proliferation (MTT) ([6]; 24 h) [µg/mL] | IC50 cell proliferation (MTT) (A549 lung cancer cells; 24 h) [µg/mL] | Structure (SMILES) | zone of inhibition at 50 µg/mL (Staphylococcus aureus [1]; read-out: Zone of Inhibition (mm), Mean ± SD, n = 3) [mm] | zone of inhibition at 50 µg/mL (MRSA [2]; Staphylococcus aureus, read-out: Zone of Inhibition (mm), Mean ± SD, n = 3) [mm] | Zone of Inhibition (mm), Mean ± SD, n = 3 (Staphylococcus aureus [1]) [mm] | Zone of Inhibition (mm), Mean ± SD, n = 3 (MRSA [2]) [mm] | anti-cell proliferation (MTT assay) ([6]; MCF-7 cells) | effect on proliferation ([6]; MCF-7 cells, 25 μg/ml) | anti-cell proliferation (MTT assay) (A549 lung cancer cells; A549 cells) | effect on proliferation (A549 lung cancer cells; A549 cells, 25 μg/ml)
3.12 (≈ 6.45 µM) | 3.12 (≈ 6.45 µM) | – | – | – | – | – | – | NC[C@H]1O[C@H](O[C@H]2[C@H](O)[C@@H](O[C@H]3O[C@H](CO)[C@@H](O)[C@H](N)[C@H]3O)[C@H](N)C[C@@H]2N)[C@H](O)[C@@H](O)[C@@H]1O [Kanamycin, reference compound] | 19.1 ± 1.38 | 21.6 ± 2.17 | – | – | – | – | – | –
– | – | Growth | Growth | Growth | Growth | 35.82 (≈ 16.8 µM) | 54.22 (≈ 25.5 µM) | CC[C@H](C)[C@H](NC(=O)[C@H](CCCNC(=N)N)NC(=O)[C@H](CCCCN)NC(=O)[C@]1(C)CCCC=CCCC[C@](C)(NC(=O)[C@H](CCCCN)NC(=O)[C@H](CCC(=O)O)NC(=O)[C@H](CCCCN)NC(=O)[C@H](CO)NC(=O)[C@H](CCCCN)NC(=O)[C@H](CCCNC(=N)N)NC(=O)[C@H](Cc2ccccc2)NC(=O)[C@@H](N)Cc2ccccc2)C(=O)NCC(=O)N[C@@H](CCCCN)C(=O)N[C@@H](CCC(=O)O)C(=O)N1)C(=O)N[C@H](C(N)=O)C(C)C [sAMP1, FFRKSKEK-S5-GKE-S5-KRIV] (H-FFRKSKEK[S5]GKE[S5]KRIV-NH2; staple 9-13; N-terminus assumed) | – | – | 22.52±2.15 | 25.31±1.53 | dose-dependent anti-cell proliferation | significantly reduced the proliferation | dose-dependent anti-cell proliferation | significantly reduced the proliferation
